Assay results from patent publication US20120202837A1, “SPIROCYCLIC PIPERIDINE DERIVATIVES USEFUL AS RENIN INHIBITORS” (priority 2009, published 2012).

How the values were obtained:
Human recombinant renin = biological target: T1, Human recombinant renin (Homo sapiens, UniProt P00797); assay: Inhibition of human recombinant renin (buffer assay); type: biochemical; conditions: buffer: 50 mM MOPS pH 7.4, 100 pM renin, 6 μM fluorescent peptide, 37° C., 3 hours
T1 construct: purchased Proteos
T1 sequence (P00797 67-406): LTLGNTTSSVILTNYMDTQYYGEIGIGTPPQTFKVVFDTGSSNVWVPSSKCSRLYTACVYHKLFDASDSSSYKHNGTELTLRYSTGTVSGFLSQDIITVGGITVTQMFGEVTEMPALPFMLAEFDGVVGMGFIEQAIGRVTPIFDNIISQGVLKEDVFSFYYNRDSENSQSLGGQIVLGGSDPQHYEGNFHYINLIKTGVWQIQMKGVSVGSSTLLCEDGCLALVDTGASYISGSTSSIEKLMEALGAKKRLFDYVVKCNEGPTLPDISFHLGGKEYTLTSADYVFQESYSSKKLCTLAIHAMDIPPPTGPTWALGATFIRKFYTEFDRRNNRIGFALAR
Procedure: Human recombinant renin (Proteos) in 50 mM MOPS pH 7.4, 100 mM NaCl, 0.002% Tween 20 at a final concentration of 100 pM is incubated with inhibitors from a 50 fold concentrated DMSO solution and 6 μM of an internally-quench fluorescent peptide: DNP-Lys-His-Pro-Phe-His-Leu-Val-Ile-His-D,L-Amp (SEQ ID NO: 1); Paschalidou K. et al., Biochem J, 2004, 382, 1031). The reactions take place in a Costar 384 well black plate (#3573) at 37° C. for 3 hours. Fluorescence is measured at times 0 and 3 hours with a SpectraMax Gemini EM reader set at an excitation wavelength of 328 nm and at an emission wavelength of 388 nm. Background fluorescence at t=0 is subtracted from the measurement at t=3 hours. Inhibitory activity of the compounds is expressed as IC50.

Renin in human plasma = biological target: T2, Renin in human plasma (Homo sapiens, UniProt P00797); assay: Inhibition of renin in human plasma; type: biochemical; conditions: human EDTA plasma, recombinant renin added at 1 nM, 6 μM substrate, 37° C., 1 hour
T2 construct: purchased Proteos; host or cells: added to human EDTA-collected plasma
T2 sequence (P00797 67-406): T1 sequence (P00797 67-406)
Procedure: Human EDTA-collected plasma is rapidly thawed in warm water and centrifuged at 2900 g for 15 minutes at 4° C. The supernatant is collected and recombinant renin (Proteos) is added at a final concentration of 1 nM. The plasma is transferred to a Costar black 384 well plate (#3573). Renin inhibitors are added from a 17.5 fold concentrated DMSO solution and pre-incubated at 37° C. for 10 minutes. The internally-quench fluorescent peptide QX1520™-Lys-His-Pro-Phe-His-Leu-Val-Ile-His-Lys (5-FAM) (Anaspec) is diluted in 3M Tris pH 7.2, 200 mM EDTA and added to the plasma. The final concentrations are: 6 μM substrate, 342 mM Tris, 23 mM EDTA. The plate is incubated at 37° C. for 1 hour. The plate is read in a SpectraMax Gemini EM reader set at an excitation wavelength of 490 nm and an emission wavelength of 520 nm at times 0 and 1 hour. Background fluorescence at t=0 is subtracted from the measurement at t=1 hour. Inhibitory activity of the compounds is expressed as IC50.

| IC50 (Human recombinant renin) | IC50 (Renin in human plasma) | SMILES |
| --- | --- | --- |
| 0.66 nM | 0.82 nM | Cc1cc(-c2ccccc2CCNC(=O)CO)ccc1[C@H]1CNCC[C@@]12OC(=O)c1cc(F)c(F)cc12 [Example 11, N-(2-{4′-[(1R,3′S)-5,6-Difluoro-3-oxo-3H-spiro[2-benzofuran-1,4′-piperidin]-3′-yl]-3′-methyl-2-biphenylyl}ethyl)-2-hydroxyacetamide] |
| 1.6 nM | 18 nM | COCCCc1ccccc1-c1ccc([C@@H]2CNCC[C@]23OCc2cn(C)c(=O)cc23)c(C)c1 (racemic) [Example 5, rac-(1R,3′S)-3′-[2′-(3-Methoxypropyl)-3-methyl-4-biphenylyl]-5-methyl-3,5-dihydro-6H-spiro[furo[3,4-c]pyridine-1,4′-piperidin]-6-one] |
| 0.26 nM | 1 nM | CC(=O)NCCc1ccccc1-c1onc([C@H]2CNCC[C@@]23OCc2cc(F)c(F)cc23)c1Br [Example 13, N-[2-(2-(4-Bromo-3-[(1R,3′R)-5,6-difluoro-3H-spiro[2-benzofuran-1,4′-piperidin]-3′-yl]-5-isoxazolyl)phenyl)ethyl]acetamide] |
| 0.2 nM | 1.4 nM | CC(=O)NCCc1ccccc1-c1ccc([C@@H]2CNCC[C@]23OCc2cc(F)c(F)cc23)c(C)c1 (racemic) [Example 4, rac-N-(2-{4′-[(1R,3′S)-5,6-Difluoro-3H-spiro[2-benzofuran-1,4′-piperidin]-3′-yl]-3′-methyl-2-biphenylyl}ethyl)acetamide] |
